Laboratory results as given in ChEMBL document CHEMBL1955738, “Synthesis and antitumor activity of 5,6-dihydro-17-hydroxy icogenin analogs” (Eur J Med Chem, 2012).

How the values were obtained:
Format in all cases: functional, cell-based
A2780 = assay: Cytotoxicity against human A2780 cells by MTT assay
A549 = assay: Cytotoxicity against human A549 cells by MTT assay
HeLa = assay: Cytotoxicity against human HeLa cells by MTT assay
KB = assay: Cytotoxicity against human KB cells by MTT assay
Bel-7402 = assay: Cytotoxicity against human Bel7402 cells by MTT assay
HCT-8 = assay: Cytotoxicity against human HCT8 cells by MTT assay
BGC-823 = assay: Cytotoxicity against human BGC823 cells by MTT assay
HL-60 = assay: Cytotoxicity against human HL60 cells

SMILES	IC50 (A2780)	IC50 (A549)	IC50 (HeLa)	IC50 (KB)	IC50 (Bel-7402)	IC50 (HCT-8)	IC50 (BGC-823)	IC50 (HL-60)
CO[C@]1(CC[C@@H](C)CO)O[C@H]2C[C@H]3[C@@H]4CCC5C[C@@H](O[C@@H]6O[C@H](CO)[C@@H](O)[C@H](O)[C@H]6O)CC[C@]5(C)[C@H]4CC[C@]3(C)[C@@]2(O)[C@@H]1C (some centres not stated)	> 10 µM	> 10 µM	> 10 µM	> 10 µM	> 10 µM	> 10 µM	> 10 µM	
CO[C@]1(CC[C@H](C)CO)O[C@H]2C[C@H]3[C@@H]4CC=C5C[C@@H](O[C@@H]6O[C@H](CO)[C@@H](O)[C@H](O[C@@H]7O[C@H](CO)[C@@H](O)[C@H](O)[C@H]7O)[C@H]6O[C@@H]6O[C@@H](C)[C@H](O)[C@@H](O)[C@H]6O)CC[C@]5(C)[C@H]4CC[C@]3(C)[C@H]2[C@@H]1C [ICOGENIN]								2.6 µM
CO[C@]1(CC[C@@H](C)CO)O[C@H]2C[C@H]3[C@@H]4CCC5C[C@@H](O)CC[C@]5(C)[C@H]4CC[C@]3(C)[C@@]2(O)[C@@H]1C (some centres not stated)	> 10 µM	> 10 µM	> 10 µM	> 10 µM	> 10 µM	> 10 µM	> 10 µM	
CO[C@]1(CC[C@@H](C)CO)O[C@H]2C[C@H]3[C@@H]4CCC5C[C@@H](O[C@H]6O[C@H](CO)[C@@H](O[C@@H]7O[C@H](CO)[C@@H](O)[C@H](O)[C@H]7O)[C@H](O)[C@H]6O[C@@H]6O[C@@H](C)[C@H](O)[C@@H](O)[C@H]6O)CC[C@]5(C)[C@H]4CC[C@]3(C)[C@@]2(O)[C@@H]1C (some centres not stated)	8.21 µM	1.9 µM	8.31 µM	5.24 µM	9.69 µM	6.05 µM	7.97 µM	
C[C@@H]1CC[C@@]2(OC1)O[C@H]1C[C@H]3[C@@H]4CC=C5C[C@@H](O[C@@H]6O[C@H](CO)[C@@H](O[C@@H]7O[C@@H](C)[C@H](O)[C@@H](O)[C@H]7O)[C@H](O)[C@H]6O[C@@H]6O[C@@H](C)[C@H](O)[C@@H](O)[C@H]6O)CC[C@]5(C)[C@H]4CC[C@]3(C)[C@H]1[C@@H]2C [DIOSCIN]	0.87 µM	0.81 µM	0.5 µM	0.53 µM	0.81 µM	0.34 µM	1.08 µM	
CO[C@]1(CC[C@@H](C)CO)O[C@H]2C[C@H]3[C@@H]4CCC5C[C@@H](O[C@H]6O[C@H](CO)[C@@H](O)[C@H](O)[C@H]6O[C@@H]6O[C@@H](C)[C@H](O)[C@@H](O)[C@H]6O)CC[C@]5(C)[C@H]4CC[C@]3(C)[C@@]2(O)[C@@H]1C (some centres not stated)	7.96 µM	3.68 µM	7.8 µM	5.97 µM	8.3 µM	3.38 µM	4.29 µM	
C[C@@H](CC[C@@]1(O)O[C@H]2C[C@H]3[C@@H]4CC[C@@H]5C[C@@H](O[C@@H]6O[C@H](CO)[C@H](O)[C@H](O)[C@H]6O[C@@H]6O[C@H](CO)[C@@H](O)[C@H](O)[C@H]6O)CC[C@]5(C)[C@H]4CC[C@]3(C)[C@H]2[C@@H]1C)CO[C@@H]1O[C@H](CO)[C@@H](O)[C@H](O)[C@H]1O [TIMOSAPONIN BII]								15.5 µg/mL
